Values of other authors as cited in patent US20240189272A1, “FORMULATIONS AND COMPOSITIONS OF DOCETAXEL” (Zhuhai Beihai Biotech Co., Ltd., priority 2017, published 2024).
“Also recorded” adds a separate entry of the source.

Assays:
[1] = attributed in part to polysorbate 80

**Q.** With `CC(=O)O[C@@]12CO[C@@H]1C[C@H](O)[C@@]1(C)C(=O)[C@H](O)C3=C(C)[C@@H](OC(=O)[C@H](O)[C@@H](NC(=O)OC(C)(C)C)c4ccccc4)C[C@@](O)([C@@H](OC(=O)c4ccccc4)[C@H]21)C3(C)C` [docetaxel] as the compound, how does the water solubility read?
**A.** practically insoluble in water; also recorded: very poor water solubility

**Q.** And the “potency in inhibiting microtubule depolymerization relative to paclitaxel” value (microtubules)?
**A.** about twice as potent as paclitaxel

**Q.** And the “in vitro binding to plasma proteins” value (plasma proteins; in three cancer patients)?
**A.** approximately 97%

**Q.** What about the protein bound (plasma proteins; in vitro studies, mainly to α1-acid glycoprotein, albumin, and lipoproteins) of the same compound?
**A.** about 94%

**Q.** And the “side-effects associated with administration” value [1]?
**A.** unpredictable (acute) hypersensitivity reactions and cumulative fluid retention
